Measurements from patent US11142515B2, “Pyrazolyl-ureas as kinase inhibitors” (RESPIVERT LIMITED, priority 2014, dated 2021).

What was measured:
[1] = biological target: T1, p38 MAPKα isoform (MAPK14) (Homo sapiens, UniProt Q16539); assay: p38 MAPKα enzyme inhibition (Z-LYTE FRET); assay type: biochemical; conditions: Table 2B, unit inferred; read-out: p38 MAPKα (Enzyme Profile)
T1 construct: purchased Life Technologies
In short: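 Recombinant human MAPK14 (40 ng/mL stock) was preincubated 2 h at RT with compound (stock dilutions 0.0012-40 μg/mL). The Z-LYTE FRET read-out used a MAPKAP-K2-derived peptide, and protease development for 1 h cleaved only non-phosphorylated peptide. Phosphorylation was calculated from the coumarin/fluorescein emission ratio.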

[2] = biological target: T2, p38MAPKγ (MAPK12) (Homo sapiens, UniProt P53778); assay: p38 MAPKγ enzyme inhibition (Z-LYTE FRET); assay type: biochemical; conditions: Table 2B, unit inferred; read-out: p38 MAPKγ (Enzyme Profile)
T2 construct: purchased Life Technologies
T2 sequence (P53778 1-367): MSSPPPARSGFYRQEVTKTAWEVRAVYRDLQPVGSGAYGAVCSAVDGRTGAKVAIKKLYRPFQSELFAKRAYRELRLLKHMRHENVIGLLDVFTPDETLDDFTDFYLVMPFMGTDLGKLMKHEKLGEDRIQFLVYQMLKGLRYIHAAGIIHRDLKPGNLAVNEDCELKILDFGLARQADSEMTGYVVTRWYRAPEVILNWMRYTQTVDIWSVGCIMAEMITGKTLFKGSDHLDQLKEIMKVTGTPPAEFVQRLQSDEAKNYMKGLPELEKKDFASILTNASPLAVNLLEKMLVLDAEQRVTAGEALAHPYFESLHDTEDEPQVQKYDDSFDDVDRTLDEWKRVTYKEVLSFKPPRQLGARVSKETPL
In short: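 Z-LYTE read-out: after 1 h protease development, only non-phosphorylated peptide is cleaved, and the donor/acceptor (coumarin/fluorescein) ratio reports phosphorylation. Beforehand, enzyme and compound (stock concentrations 0.0012–40 μg/mL) were preincubated 2 h at RT, then the kinase reaction ran 1 h at RT with peptide and ATP (8 μM and 400 μM stocks).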

T1 sequence (Q16539 whole entry, canonical isoform): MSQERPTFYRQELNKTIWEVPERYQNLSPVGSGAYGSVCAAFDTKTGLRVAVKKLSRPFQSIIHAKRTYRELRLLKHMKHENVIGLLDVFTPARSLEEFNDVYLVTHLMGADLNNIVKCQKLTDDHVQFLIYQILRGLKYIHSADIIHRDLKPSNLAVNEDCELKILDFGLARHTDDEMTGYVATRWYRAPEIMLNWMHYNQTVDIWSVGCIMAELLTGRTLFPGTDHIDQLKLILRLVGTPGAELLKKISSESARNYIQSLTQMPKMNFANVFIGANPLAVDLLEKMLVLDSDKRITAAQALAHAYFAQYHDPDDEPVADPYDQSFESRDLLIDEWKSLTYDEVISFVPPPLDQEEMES

## CC(C)(C)c1cc(NC(=O)Nc2ccc(OCc3ccnc(Nc4cnc(C(=O)N5CCCC5)cn4)c3)c3ccccc23)n(-c2ccc(F)cc2)n1 [Example 215, 1-(3-(tert-butyl)-1-(4-fluoro-phenyl)-1H-pyrazol-5-yl)-3-(4-((2-((5-(pyrrolidine-1-carbonyl)pyrazin-2-yl)amino)pyridin-4-yl)methoxy)naphthalen-1-yl)urea]
[1]
  IC50: 15 nM
[2]
  IC50: > 14300 nM

## Cc1ccc(-n2nc(C(C)(C)C)cc2NC(=O)Nc2ccc(OCc3ccnc(Nc4cncc(CCCO)n4)c3)c3ccccc23)cc1 [Example 155, 1-(3-(tert-butyl)-1-(p-tolyl)-1H-pyrazol-5-yl)-3-(4-((2-((6-(3-hydroxypropyl)pyrazin-2-yl)amino)pyridin-4-yl)methoxy)naphthalen-1-yl)urea]
[1]
  IC50: 8.9 nM
[2]
  IC50: 31 nM

## COCc1cccc(-n2nc(C(C)(C)C)cc2NC(=O)Nc2ccc(OCc3ccnc(Nc4cnc(C(=O)N5CCN(C)CC5)cn4)c3)c3ccccc23)c1 [Example 269, 1-(3-(tert-butyl)-1-(3-(methoxymethyl)phenyl)-1H-pyrazol-5-yl)-3-(4-((2-((5-(4-methylpiperazine-1-carbonyl)pyrazin-2-yl)amino)pyridin-4-yl)methoxy)naphthalen-1-yl)urea]
[1]
  IC50: < 0.4 nM
[2]
  IC50: 138 nM

## Cc1ccc(-n2nc(C(C)(C)C)cc2NC(=O)Nc2ccc(OCc3ccnc(Nc4cncc(N5CC(O)C5)n4)c3)c3ccccc23)cc1 [Example 123, 1-(3-(tert-butyl)-1-(p-tolyl)-1H-pyrazol-5-yl)-3-(4-((2-((6-(3-hydroxyazetidin-1-yl)pyrazin-2-yl)amino)pyridin-4-yl)methoxy)naphthalen-1-yl)urea]
[1]
  IC50: 60 nM
[2]
  IC50: 171 nM

## CCc1cnc(Nc2cc(COc3ccc(NC(=O)Nc4cc(C(C)(C)C)nn4-c4ccc(C)c(C)c4)c4ccccc34)ccn2)cn1 [Example 151, 1-(3-(tert-butyl)-1-(3,4-dimethylphenyl)-1H-pyrazol-5-yl)-3-(4-((2-((5-ethylpyrazin-2-yl)amino)pyridin-4-yl)methoxy)naphthalen-1-yl)urea]
[1]
  IC50: 35 nM
[2]
  IC50: 439 nM

## CC(=O)N1CCN(C(=O)c2cnc(Nc3cc(COc4ccc(NC(=O)Nc5cc(C(C)(C)C)nn5-c5ccc(C)cc5)c5ccccc45)ccn3)cn2)CC1 [Example 240, 1-(4-((2-((5-(4-acetyl-piperazine-1-carbonyl)pyrazin-2-yl)amino)pyridin-4-yl)methoxy)naphthalen-1-yl)-3-(3-(tert-butyl)-1-(p-tolyl)-1H-pyrazol-5-yl)urea]
[1]
  IC50: 12 nM
[2]
  IC50: 80 nM

## CCc1ccc(-n2nc(C(C)(C)C)cc2NC(=O)Nc2ccc(OCc3ccnc(Nc4cnc(C(=O)N5CCCC5)cn4)c3)c3ccccc23)cc1 [Example 229, 1-(3-(tert-butyl)-1-(4-ethyl-phenyl)-1H-pyrazol-5-yl)-3-(4-((2-((5-(pyrrolidine-1-carbonyl)pyrazin-2-yl)amino)pyridin-4-yl)methoxy)naphthalen-1-yl)urea]
[1]
  IC50: 27 nM
[2]
  IC50: > 14100 nM

## COc1ccc(-n2nc(C(C)(C)C)cc2NC(=O)Nc2ccc(OCc3ccnc(Nc4cnc(C)c(C)n4)c3)c3ccccc23)cn1 [Example 207, 1-(3-(tert-butyl)-1-(6-methoxypyridin-3-yl)-1H-pyrazol-5-yl)-3-(4-((2-((5,6-dimethylpyrazin-2-yl)amino)pyridin-4-yl)methoxy)naphthalen-1-yl)urea]
[1]
  IC50: 30 nM
[2]
  IC50: 2390 nM

## Cc1cccc(-n2nc(C(C)(C)C)cc2NC(=O)Nc2ccc(OCc3ccnc(Nc4cnc(C(=O)NCCCO)cn4)c3)c3ccccc23)c1 [Example 231, 5-((4-(((4-(3-(3-(tert-butyl)-1-(m-tolyl)-1H-pyrazol-5-yl)ureido)naphthalen-1-yl)oxy)methyl)pyridin-2-yl)amino)-N-(3-hydroxypropyl) pyrazine-2-carboxamide]
[1]
  IC50: 15 nM
[2]
  IC50: 95 nM

## Cc1ccc(-n2nc(C(C)(C)C)cc2NC(=O)Nc2ccc(OCc3ccnc(Nc4cncc(OCC(C)C)n4)c3)c3ccccc23)cc1 [Example 122, 1-(3-(tert-butyl)-1-(p-tolyl)-1H-pyrazol-5-yl)-3-(4-((2-((6-isobutoxypyrazin-2-yl)amino)pyridin-4-yl)methoxy)naphthalen-1-yl) urea]
[1]
  IC50: 2780 nM
[2]
  IC50: 8740 nM

## Cc1ccc(-n2nc(C(C)(C)C)cc2NC(=O)Nc2ccc(OCc3ccnc(Nc4cnc(C(=O)N(C)CCCO)cn4)c3)c3ccccc23)cc1 [Example 223, 5-((4-(((4-(3-(3-(tert-butyl)-1-(p-tolyl)-1H-pyrazol-5-yl)ureido)naphthalen-1-yl)oxy)methyl)pyridin-2-yl)amino)-N-(3-hydroxypropyl)-N-methylpyrazine-2-carboxamide]
[1]
  IC50: 11 nM
[2]
  IC50: 103 nM

## Cc1ccc(-n2nc(C(C)(C)C)cc2NC(=O)Nc2ccc(OCc3ccnc(Nc4cnc(C(=O)N5CCCC5)cn4)c3)c3ccccc23)cc1F [Example 235, 1-(3-(tert-butyl)-1-(3-fluoro-4-methylphenyl)-1H-pyrazol-5-yl)-3-(4-((2-((5-(pyrrolidine-1-carbonyl)pyrazin-2-yl)amino)pyridin-4-yl)methoxy)naphthalen-1-yl)urea]
[1]
  IC50: 65 nM
[2]
  IC50: > 14000 nM

## Cc1ccc(-n2nc(C(C)(C)C)cc2NC(=O)Nc2ccc(OCc3ccnc(Nc4cnc(C(=O)N5C[C@@H](O)[C@H](O)C5)cn4)c3)c3ccccc23)cc1 [Example 248, 1-(3-(tert-butyl)-1-(p-tolyl)-1H-pyrazol-5-yl)-3-(4-((2-((5-((3R,4R)-3,4-dihydroxy-pyrrolidine-1-carbonyl)pyrazin-2-yl)amino)pyridin-4-yl)methoxy)naphthalen-1-yl)urea]
[1]
  IC50: 4.7 nM
[2]
  IC50: 51 nM

## COCc1ccc(-n2nc(C(C)(C)C)cc2NC(=O)Nc2ccc(OCc3ccnc(Nc4cnccn4)c3)c3ccccc23)cc1 [Example 64]
[1]
  IC50: 9.7 nM
[2]
  IC50: 39 nM

## Cc1ccc(-n2nc(C(C)(C)C)cc2NC(=O)Nc2ccc(OCc3ccnc(Nc4cnc(C(=O)NCCCO)cn4)c3)c3ccccc23)cc1 [Example 134, 5-((4-(((4-(3-(3-(tert-butyl)-1-(p-tolyl)-1H-pyrazol-5-yl)ureido)naphthalen-1-yl)oxy)methyl)pyridin-2-yl)amino)-N-(3-hydroxy-propyl)pyrazine-2-carboxamide]
[1]
  IC50: 3.8 nM
[2]
  IC50: 35 nM

## Cc1ccc(-n2nc(C(C)(C)C)cc2NC(=O)Nc2ccc(OCc3ccnc(Nc4cnc(C(=O)N5CC(F)C5)cn4)c3)c3ccccc23)cc1 [Example 193, 1-(3-(tert-butyl)-1-(p-tolyl)-1H-pyrazol-5-yl)-3-(4-((2-((5-(3-fluoroazetidine-1-carbonyl)pyrazin-2-yl)amino)pyridin-4-yl)methoxy)naphthalen-1-yl)urea]
[1]
  IC50: 89 nM
[2]
  IC50: > 14300 nM

## CCc1cncc(Nc2cc(COc3ccc(NC(=O)Nc4cc(C(C)(C)C)nn4-c4ccc(F)cc4)c4ccccc34)ccn2)n1 [Example 213, 1-(3-(tert-butyl)-1-(4-fluoro-phenyl)-1H-pyrazol-5-yl)-3-(4-((2-((6-ethylpyrazin-2-yl)amino)pyridin-4-yl)methoxy)naphthalen-1-yl)urea]
[1]
  IC50: 36 nM
[2]
  IC50: 735 nM

## CO[C@@H]1CCN(C(=O)c2cnc(Nc3cc(COc4ccc(NC(=O)Nc5cc(C(C)(C)C)nn5-c5ccc(C)cc5)c5ccccc45)ccn3)cn2)C1 [Example 66]
[1]
  IC50: 28 nM
[2]
  IC50: 319 nM

## CO[C@H]1CCN(C(=O)c2cnc(Nc3cc(COc4ccc(NC(=O)Nc5cc(C(C)(C)C)nn5-c5ccc(C)cc5)c5ccccc45)ccn3)cn2)C1 [Example 67]
[1]
  IC50: 39 nM
[2]
  IC50: 345 nM

## Cc1ccc(-n2nc(C(C)(C)C)cc2NC(=O)Nc2ccc(OCc3ccnc(Nc4cnc(CN5CCOCC5)cn4)c3)c3ccccc23)cc1 [Example 263, 1-(3-(tert-butyl)-1-(p-tolyl)-1H-pyrazol-5-yl)-3-(4-((2-((5-(morpholinomethyl)pyrazin-2-yl)amino)pyridin-4-yl)methoxy)naphthalen-1-yl)urea]
[1]
  IC50: 21 nM
[2]
  IC50: 218 nM

## Cc1ccc(-n2nc(C(C)(C)C)cc2NC(=O)Nc2ccc(OCc3ccnc(Nc4cncc(OCCO)n4)c3)c3ccccc23)cc1 [Example 121, 1-(3-(tert-butyl)-1-(p-tolyl)-1H-pyrazol-5-yl)-3-(4-((2-((6-(2-hydroxyethoxy)pyrazin-2-yl)amino)pyridin-4-yl)methoxy)naphthalen-1-yl)urea]
[1]
  IC50: 38 nM
[2]
  IC50: 79 nM

## CCc1cncc(Nc2cc(COc3ccc(NC(=O)Nc4cc(C(C)(C)C)nn4-c4cc(C)cc(OC)c4)c4ccccc34)ccn2)n1 [Example 221, 1-(3-(tert-butyl)-1-(3-methoxy-5-methylphenyl)-1H-pyrazol-5-yl)-3-(4-((2-((6-ethylpyrazin-2-yl)amino)pyridin-4-yl)methoxy)naphthalen-1-yl)urea]
[1]
  IC50: 81 nM
[2]
  IC50: 1270 nM

## CCc1cncc(Nc2cc(COc3ccc(NC(=O)Nc4cc(C(C)(C)C)nn4-c4ccc(OC)nc4)c4ccccc34)ccn2)n1 [Example 63]
[1]
  IC50: 25 nM
[2]
  IC50: 312 nM
